Some test systems named below: DMS 114 small cell lung; KM20L2 colon; LXFL 529 NSCLC; XF 498 CNS; MDA-N; DLD-1 colon; HOP-18 NSCLC; RXF-631 renal; P388 leukemia; P388/ADR leukemia; SN12K1 renal.
Common to all, as to experiment: NCI tumour cell line growth inhibition, 48 h

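Grown in 96-well plates, cells were treated for 48 hours with each compound at five concentrations. Insufficient inhibition: endpoint recorded as highest concentration tested. GI50 is the concentration that inhibits growth by half. TGI marks complete inhibition of growth.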

For the compound `O=C(O)c1ccc2c(c1)C(=O)N(c1ccc(S(=O)(=O)c3ccc(N4C(=O)c5ccc(C(=O)O)cc5C4=O)cc3)cc1)C2=O`, the TGI with DMS 114 small cell lung, in the experiment on KM20L2 colon, in the experiment with LXFL 529 NSCLC and in the experiment on XF 498 CNS was more than 100 µM in each case.

`CC1(C)C(N2CCOCC2)CS1(=O)=O` (centres undefined) came in with a TGI in the experiment on MDA-N of more than 10 µM.

Regarding `CC1(C)c2ccccc2N2C(c3ccccc3)=NOC21C` (centres undefined), the TGI in the experiment with DLD-1 colon, in the experiment on DMS 114 small cell lung, in the experiment on HOP-18 NSCLC, in the experiment on KM20L2 colon, in the experiment with LXFL 529 NSCLC and with RXF-631 renal was more than 100 µM throughout.

For the compound `C=C1C(=O)O[C@H](c2ccoc2)C[C@@H]1[C@@]1(C)CCCC2(C)C(=O)OCC21` (some centres undefined), the TGI in the experiment on DMS 114 small cell lung, in the experiment on KM20L2 colon, in the experiment on LXFL 529 NSCLC and in the experiment with XF 498 CNS was more than 100 µM in each case.

For the compound `CC1OC(n2cc(C(F)(F)F)c(=O)[nH]c2=O)C=CC1=O` (centres undefined), the TGI in the experiment with DLD-1 colon amounted to 38.2 µM; with KM20L2 colon, 48.1 µM; in the experiment on LXFL 529 NSCLC, 31.6 µM; in the experiment on RXF-631 renal, 25.3 µM; with XF 498 CNS it was 30.3 µM.

With `COc1cc(OCc2ccccc2)c2c(CCC(=O)O)cc(=O)oc2c1` (tested in a mixture with another compound), the TGI in the experiment on MDA-N was more than 100 µM.

Take `Cc1ccc(N(C=O)c2c([N+](=O)[O-])cc([N+](=O)[O-])c3c2=[N+]([O-])CN=3)cc1`: in the experiment with MDA-N, the TGI was more than 100 µM.

Regarding `C/C=C/C(=O)Oc1cccc2cccnc12`, the TGI is 21 µM in the experiment with DLD-1 colon; 16.8 µM with DMS 114 small cell lung; more than 100 µM with HOP-18 NSCLC; more than 35.5 µM in the experiment on KM20L2 colon; more than 100 µM with LXFL 529 NSCLC; 55.2 µM with XF 498 CNS.

On to `CCOC(=O)C1=C(C)NC(=O)NC1c1ccc(OC)cc1OC` (centres undefined), for which the TGI with DLD-1 colon, in the experiment on DMS 114 small cell lung, in the experiment with HOP-18 NSCLC, with KM20L2 colon, in the experiment with LXFL 529 NSCLC and in the experiment on XF 498 CNS was more than 100 µM throughout.

For the compound `COc1ccc(CN2C(=O)[C@@H]3Cc4c(OC)c(C)c(OC)c(OC)c4[C@H](/C2=C\c2cc(OC)c(OC)c(C)c2OC)N3C(=O)OC(C)C)cc1`, the TGI in the experiment with DLD-1 colon, with DMS 114 small cell lung, with HOP-18 NSCLC, in the experiment with KM20L2 colon, with LXFL 529 NSCLC and in the experiment on RXF-631 renal was more than 100 µM in each case.

In the case of `Nc1cccc2c1-c1c(cccc1[N+](=O)[O-])C2=O`, the TGI in the experiment on DLD-1 colon, in the experiment with DMS 114 small cell lung, in the experiment on HOP-18 NSCLC and in the experiment on KM20L2 colon was more than 100 µM each time.

As for `O=C(O)CCC(c1ccccc1)(c1ccccc1)c1ccccc1`, the TGI with MDA-N was more than 100 µM.

Regarding `N#C/C(=C\c1c(O)cc(O)cc1O)C(N)=O`, the TGI in the experiment on DLD-1 colon, in the experiment with DMS 114 small cell lung, in the experiment on KM20L2 colon, in the experiment with LXFL 529 NSCLC, with RXF-631 renal and in the experiment on XF 498 CNS was more than 100 µM each time.

With `CCC12C=CCN(CCc3c([nH]c4ccccc34)/C=C\1)C2` (centres undefined), the TGI with DMS 114 small cell lung, in the experiment on HOP-18 NSCLC, in the experiment on KM20L2 colon, in the experiment with LXFL 529 NSCLC, in the experiment on RXF-631 renal and in the experiment on XF 498 CNS was more than 100 µM each time.

With `COc1cccc2c1C(=O)c1c(O)c3c(c(O)c1C2=O)C[C@@](O)(C(=O)CO)CC3OC1CC(N)C(OC2CCCCO2)C(C)O1` (some centres undefined), the TGI with DLD-1 colon turned out to be 17.8 µM; with HOP-18 NSCLC it was 1.06 µM; in the experiment on KM20L2 colon, 4.98 µM; with LXFL 529 NSCLC, 3.14 µM; in the experiment on MDA-N, 0.362 µM; with XF 498 CNS it was 1.47 µM.

Consider `N#C/C(=C\c1cc(O)c(O)c(O)c1)C(N)=O`, for which the TGI in the experiment with DLD-1 colon, with DMS 114 small cell lung, in the experiment with KM20L2 colon, in the experiment with LXFL 529 NSCLC, in the experiment on MDA-N and in the experiment on RXF-631 renal was more than 100 µM throughout. This compound gave a TGI in the experiment with XF 498 CNS of more than 100 µM.

Take `CNC(=O)ON(C(C)=O)C(=O)NC`: the TGI with DLD-1 colon worked out at 326 µM; in the experiment on DMS 114 small cell lung, 126 µM; in the experiment with HOP-18 NSCLC, 242 µM; with KM20L2 colon, 324 µM; with MDA-N, 73.6 µM; with P388 leukemia, 62.4 µM. Moreover, the TGI in the experiment on P388/ADR leukemia stood at 111 µM; in the experiment on SN12K1 renal, 192 µM; in the experiment on XF 498 CNS, 131 µM. Further, in the experiment on MDA-N, the GI50 is more than 85.8 µM.

`CC(C)(C)[Si](C)(C)OCC1OC(n2cnc3c(=O)[nH]cnc32)CC1O` (centres undefined): the TGI in the experiment with MDA-N was more than 100 µM.

Regarding `Cc1ccccc1NC(=O)Cc1nc2ccccc2s1`, the TGI in the experiment with DLD-1 colon was more than 100 µM; in the experiment with HOP-18 NSCLC it was 17.2 µM; in the experiment with KM20L2 colon it was 36.6 µM; with LXFL 529 NSCLC, 29.9 µM; in the experiment on RXF-631 renal, 32.3 µM; in the experiment on XF 498 CNS, 27.6 µM.

Take `Cc1ccccc1NC(=O)/C(=N\NC(N)=S)C(C#N)c1ccccc1` (centres undefined): the TGI in the experiment on DLD-1 colon, in the experiment with DMS 114 small cell lung, in the experiment on HOP-18 NSCLC, with KM20L2 colon, with LXFL 529 NSCLC and with RXF-631 renal was more than 100 µM throughout.

In the case of `Cn1[nH]cc2ccc3nc4ccccc4c(=O)c3c21`, the TGI was more than 100 µM in the experiment with DLD-1 colon; more than 100 µM in the experiment with DMS 114 small cell lung; more than 100 µM with HOP-18 NSCLC; more than 100 µM in the experiment on KM20L2 colon; more than 100 µM in the experiment on LXFL 529 NSCLC; more than 66.1 µM with RXF-631 renal.

The values are drawn from PubChem BioAssay (NCI).
